Earlier results as cited in patent US20080275000A1, “COMPOSITIONS FOR REDUCING, AMELIORATING, TREATING, OR PREVENTING CONDITION OF DRY EYE AND METHODS OF MAKING AND USING SAME” (priority 2007, published 2008).
Read-outs that look alike come from different tables or passages of the source.

Columns and labels:
[1] = buffering agent pH range
[2] = Table 1, only or first printed value

## O=C(O)[C@@H]1CCC[C@H]1C(=O)O (relative stereo) [1,2-trans-cyclopentanedicarboxylic acid]
[2]
  pKa: 3.89
Table 1, second printed value
  pKa: 5.91

## O=C(O)[C@H]1CCC[C@H](C(=O)O)C1 (relative stereo) [1,3-trans-cyclohexanedicarboxylic acid]
[2]
  pKa: 4.18
Table 1, second printed value
  pKa: 5.93

## O=C(O)[C@H]1CC[C@H](C(=O)O)C1 (relative stereo) [1,3-trans-cyclopentanedicarboxylic acid]
[2]
  pKa: 4.40
Table 1, second printed value
  pKa: 5.45

## O=C(O)CC1(CC(=O)O)CCCC1 [1,1-cyclopentanediacetic acid]
[2]
  pKa: 3.82
Table 1, second printed value
  pKa: 6.70

## O=C(O)[C@H]1CC[C@@H](C(=O)O)CC1 [1,4-cis-cyclohexanedicarboxylic acid]
[2]
  pKa: 4.44
Table 1, second printed value
  pKa: 5.79

## COCCN(CC(=O)O)CC(=O)O [2-methoxyethyliminodiacetic acid]
First listed value
  pKa: 2.2
Second listed value
  pKa: 8.96

## CSCCN(CC(=O)O)CC(=O)O [2-methylthioethyliminodiacetic acid]
First listed value
  pKa: 2.1
Second listed value
  pKa: 8.91

## CC1(C(=O)O)CCC(C(=O)O)C1(C)C (stereo not drawn) [(+) camphoric acid]
[2]
  pKa: 4.72

## O=S(=O)(O)CCN(CCO)CCO [BES, N,N-bis{2-hydroxyethyl}2-aminoethanesulfonic acid]
[1]
  pH in the range of: 6.4-7.8

## O=C(O)CN(CCN(CC(=O)O)CC(=O)O)CCN(CC(=O)O)CC(=O)O [DTPA, diethylenetriaminepentaacetic acid]
Bound stated for two pKa values
  two pKa values: greater than or equal to 6.30

## O=S(=O)(O)CCN1CCN(CCO)CC1 [HEPES, N-{2-hydroxyethyl}peperazine-N′-{2-ethanesulfonic acid}]
[1]
  pH in the range of: 6.8-8.2

## O=S(=O)(O)CCCN1CCOCC1 [MOPS, 3-{N-morpholino}propanesulfonic acid]
[1]
  pH in the range of: 6.5-7.9

## O=C(O)CN(CCS(=O)(=O)O)CC(=O)O [N-2-sulfoethyliminodiacetic acid]
First listed value
  pKa: 1.92
Second listed value
  pKa: 2.28
Third listed value
  pKa: 8.16

## O=C(O)CCCCCCCC(=O)O [azelaic acid]
Table 1, second printed value
  pKa: 5.41

## CC(=O)C1C(=O)C=C(C)OC1=O (centres unmarked) [dehydroacetic acid]
[2]
  pKa: 5.40

## O=C(O)CNCC(=O)O [iminodiacetic acid]
First listed value
  pKa: 2.98
Second listed value
  pKa: 9.89

## CCCC(=O)OO [n-peroxybutyric acid]
[2]
  pKa: 8.2

## O=C(O)c1cccnc1 [nicotinic acid]
First listed value
  pKa: 10.09
Fourth listed value
  pKa: 2.86
Second listed value
  pKa: 9.14
Third listed value
  pKa: 6.92

## CCCCOc1ccc(C(=O)O)cc1 [p-n-butoxybenzoic acid]
[2]
  pKa: 4.53

## CCCOc1ccc(C(=O)O)cc1 [p-n-propoxybenzoic acid]
[2]
  pKa: 4.46

## CC(=O)OO [peroxyacetic acid]
[2]
  pKa: 8.2

## O=COO [peroxyformic acid]
[2]
  pKa: 7.1

## O=C(O)CCCCCC(=O)O [pimelic acid]
Table 1, second printed value
  pKa: 5.42

## O=C(O)CCCCCCC(=O)O [suberic acid]
[2]
  pKa: 4.52
Table 1, second printed value
  pKa: 5.4

## CCCCC(=O)O [valeric acid]
[2]
  pKa: 4.85

## CC(CC(=O)O)CC(=O)O [β-methylglutaric acid]
[2]
  pKa: 4.25
Table 1, second printed value
  pKa: 6.22
